Reference: patent US10590105B2, “1,3-dihydroxy-phenyl derivatives useful as immunomodulators” (BRISTOL-MYERS SQUIBB COMPANY, priority 2016, dated 2020)
Like-named read-outs stand apart in the source and are kept apart here.

Target: PD-1/PD-L1 interaction (PD-1-Ig / PD-L1-His) (Homo sapiens (Human), UniProt Q9NZQ7)
Experiment: PD-1/PD-L1 Homogenous Time-Resolved Fluorescence (HTRF) binding assay
Conditions: PD-1/PD-L1 HTRF binding assay, read-out: Range or IC50
Description: The ability of the compounds of formula (I) to bind to PD-L1 was investigated using a PD-1/PD-L1 Homogenous Time-Resolved Fluorescence (HTRF) binding assay.
Homogenous Time-Resolved Fluorescence (HTRF) Binding Assay.
The interaction of PD-1 and PD-L1 can be assessed using soluble, purified preparations of the extracellular domains of the two proteins. The PD-1 and PD-L1 protein extracellular domains were expressed as fusion proteins with detection tags, for PD-1, the tag was the Fc portion of Immunoglobulin (PD-1-Ig) and for PD-L1 it was the 6 histidine motif (PD-L1-His). All binding studies were performed in an HTRF assay buffer consisting of dPBS supplemented with 0.1% […] bovine serum albumin and 0.05% (v/v) Tween-20. For the h/PD-L1-His binding assay, inhibitors were pre-incubated with PD-L1-His (10 nM final) for 15 m in 4 μl of assay buffer, followed by addition of PD-1-Ig (20 nM final) in 1 μl of assay buffer and further incubation for 15 m. HTRF detection was achieved using europium crypate-labeled anti-Ig (1 nM final) and allophycocyanin (APC) labeled anti-His (20 nM final). Antibodies were diluted in HTRF detection buffer and 5 μl was dispensed on top of the binding reaction. The reaction mixture was allowed to equilibrate for 30 minutes and the resulting signal (665 nm/620 nm ratio) was obtained using an EnVision fluorometer. Additional binding assays were established between the human proteins PD-1-Ig/PD-L2-His (20 & 5 nM, respectively) and CD80-His/PD-L1-Ig (100 & 10 nM, respectively).
Recombinant Proteins. Human PD-1 (25-167) with a C-terminal human Fc domain of immunoglobulin G (Ig) epitope tag [hPD-1 (25-167)-3S-IG] and human PD-L1 (18-239) with a C-terminal His epitope tag [hPD-L1(18-239)-TVMV-His] were expressed in HEK293T cells and purified sequentially by ProteinA affinity chromatography and size exclusion chromatography. Human PD-L2-His and CD80-His was obtained through commercial sources.
Ranges are as follows: A=0.001 to 0.010 micromolar; B=0.011 to 0.150 micromolar; C=0.151 to 10 micromolar.

PD-1/PD-L1 interaction (PD-1-Ig / PD-L1-His), sequence (Q9NZQ7 other isoform, or with tags, fused parts or gaps): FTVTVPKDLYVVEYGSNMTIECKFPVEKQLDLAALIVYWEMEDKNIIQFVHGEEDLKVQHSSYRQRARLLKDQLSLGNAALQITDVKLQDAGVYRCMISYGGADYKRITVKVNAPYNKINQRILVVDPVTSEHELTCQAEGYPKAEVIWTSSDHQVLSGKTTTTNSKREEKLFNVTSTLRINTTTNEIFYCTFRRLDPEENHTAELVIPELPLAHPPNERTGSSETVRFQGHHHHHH

SMILES | IC50 (value given as range class) [nM] | IC50 (value given as number) [nM]
Cc1c(COc2cc(OCc3cncc(C#N)c3)c(CN[C@@H](CO)C(=O)O)cc2Cl)cccc1-c1cccn(CCCN2CC[C@@H](O)C2)c1=O [Example 1040, (S)-2-((5-chloro-2-((5-cyanopyridin-3-yl)methoxy)-4-((3-(1-(3-((R)-3-hydroxypyrrolidin-1-yl)propyl)-2-oxo-1,2-dihydropyridin-3-yl)-2-methylbenzyl)oxy)benzyl)amino)-3-hydroxypropanoic acid] | 151 to 10000 | –
Cc1c(COc2cc(OCc3cncc(C#N)c3)c(CN[C@](C)(CO)C(=O)O)cc2Cl)cccc1-c1ccc2[nH]cnc2c1 [Example 1024, (R)-2-((4-((3-(1H-benzo[d]imidazol-5-yl)-2-methylbenzyl)oxy)-5-chloro-2-((5-cyanopyridin-3-yl)methoxy)benzyl)amino)-3-hydroxy-2-methylpropanoic acid] | – | 135
Cc1c(COc2cc(OCc3cncc(C#N)c3)c(CN[C@](C)(CO)C(=O)O)cc2Cl)cccc1-c1ccc2ncsc2c1 [Example 1011, (R)-2-((4-((3-(benzo[d]thiazol-6-yl)-2-methylbenzyl)oxy)-5-chloro-2-((5-cyanopyridin-3-yl)methoxy)benzyl)amino)-3-hydroxy-2-methylpropanoic acid] | 11 to 150 | –
Cc1c(COc2cc(OCc3cncc(C#N)c3)c(CN[C@@](C)(CO)C(=O)O)cc2Cl)cccc1-c1cccn(CCCN2CC[C@@H](O)C2)c1=O [Example 1037, (S)-2-((5-chloro-2-((5-cyanopyridin-3-yl)methoxy)-4-((3-(1-(3-((R)-3-hydroxypyrrolidin-1-yl)propyl)-2-oxo-1,2-dihydropyridin-3-yl)-2-methylbenzyl)oxy)benzyl)amino)-3-hydroxy-2-methylpropanoic acid] | 151 to 10000 | –
Cc1c(COc2cc(OCc3cncc(C#N)c3)c(CN3CCCC[C@H]3C(=O)O)cc2Cl)cccc1-c1ccc2nccnc2c1 [Example 1032, (S)-1-(5-chloro-2-((5-cyanopyridin-3-yl)methoxy)-4-((2-methyl-3-(quinoxalin-6-yl)benzyl)oxy)benzyl)piperidine-2-carboxylic acid] | 11 to 150 | –
Cc1c(COc2cc(OCc3cncc(C#N)c3)c(CN[C@@H](CCCNC(=N)N)C(=O)O)cc2Cl)cccc1-c1ccc2occc2c1 [Example 1014, (S)-2-((4-((3-(benzofuran-5-yl)-2-methylbenzyl)oxy)-5-chloro-2-((5-cyanopyridin-3-yl)methoxy)benzyl)amino)-5-guanidinopentanoic acid] | 151 to 10000 | –
Cc1c(COc2cc(OCc3cncc(C#N)c3)c(CN[C@](C)(CO)C(=O)O)cc2Cl)cccc1-c1ccc2cccnc2c1 [Example 1001, (R)-2-((5-chloro-2-((5-cyanopyridin-3-yl)methoxy)-4-((2-methyl-3-(quinolin-7-yl)benzyl)oxy)benzyl)amino)-3-hydroxy-2-methylpropanoic acid] | 11 to 150 | –
Cc1c(COc2cc(OCc3cncc(C#N)c3)c(CN[C@](C)(CO)C(=O)O)cc2Cl)cccc1-c1ccc2ccccc2n1 [Example 1004, (R)-2-((5-chloro-2-((5-cyanopyridin-3-yl)methoxy)-4-((2-methyl-3-(quinolin-2-yl)benzyl)oxy)benzyl)amino)-3-hydroxy-2-methylpropanoic acid] | 151 to 10000 | –
Cc1nn(CCCCN2CC[C@H](O)C2)c(C)c1-c1cccc(COc2cc(OCc3cncc(C#N)c3)c(CN[C@](C)(CO)C(=O)O)cc2Cl)c1C [Example 2003, (R)-2-((5-chloro-2-((5-cyanopyridin-3-yl)methoxy)-4-((3-(1-(4-((S)-3-hydroxypyrrolidin-1-yl)butyl)-3,5-dimethyl-1H-pyrazol-4-yl)-2-methylbenzyl)oxy)benzyl)amino)-3-hydroxy-2-methylpropanoic acid] | 151 to 10000 | –
Cc1c(COc2cc(OCc3cncc(C#N)c3)c(CNC(C)(C)C(=O)O)cc2Cl)cccc1-c1ccc2occc2c1 [Example 1015, 2-((4-((3-(benzofuran-5-yl)-2-methylbenzyl)oxy)-5-chloro-2-((5-cyanopyridin-3-yl)methoxy)benzyl)amino)-2-methylpropanoic acid] | 11 to 150 | –
Cc1c(COc2cc(OCc3cncc(C#N)c3)c(CN[C@](C)(CO)C(=O)O)cc2Cl)cccc1-c1cccn(CCCN2CC[C@@H](O)C2)c1=O [Example 1038, (R)-2-((5-chloro-2-((5-cyanopyridin-3-yl)methoxy)-4-((3-(1-(3-((R)-3-hydroxypyrrolidin-1-yl)propyl)-2-oxo-1,2-dihydropyridin-3-yl)-2-methylbenzyl)oxy)benzyl)amino)-3-hydroxy-2-methylpropanoic acid] | 151 to 10000 | –
Cc1c(COc2cc(OCc3cncc(C#N)c3)c(CN[C@](C)(CO)C(=O)O)cc2Cl)cccc1-c1cnc2ccccc2c1 [Example 1002, (R)-2-((5-chloro-2-((5-cyanopyridin-3-yl)methoxy)-4-((2-methyl-3-(quinolin-3-yl)benzyl)oxy)benzyl)amino)-3-hydroxy-2-methylpropanoic acid] | 151 to 10000 | –
Cc1c(COc2cc(OCc3cncc(C#N)c3)c(CN[C@H](CO)C(=O)O)cc2Cl)cccc1-c1ccc2c(c1)ncn2CCN(C)C [Example 1025, (R)-2-((5-chloro-2-((5-cyanopyridin-3-yl)methoxy)-4-((3-(1-(2-(dimethylamino)ethyl)-1H-benzo[d]imidazol-6-yl)-2-methylbenzyl)oxy)benzyl)amino)-3-hydroxypropanoic acid and (R)-2-((5-chloro-2-((5-cyanopyridin-3-yl)methoxy)-4-((3-(1-(2-(dimethylamino)ethyl)-1H-benzo[d]imidazol-5-yl)-2-methylbenzyl)oxy)benzyl)amino)-3-hydroxypropanoic acid] | 151 to 10000 | –

Now from value to compound:

IC50 (value given as range class) [nM] | IC50 (value given as number) [nM] | SMILES
1 to 10 | – | CCC(CO)(CO)NCc1cc(Cl)c(OCc2nccc(-c3cccc(OCCCN4CC[C@@H](O)C4)c3C)c2C)cc1OCc1cncc(C#N)c1 [Example 2013, (R)-5-((4-chloro-2-(((1-hydroxy-2-(hydroxymethyl)butan-2-yl)amino)methyl)-5-((4-(3-(3-(3-hydroxypyrrolidin-1-yl)propoxy)-2-methylphenyl)-3-methylpyridin-2-yl)methoxy)phenoxy)methyl)nicotinonitrile]
11 to 150 | – | Cc1c(COc2cc(OCc3cncc(C#N)c3)c(CN[C@](C)(CO)C(=O)O)cc2Cl)cccc1-c1ccc2ncoc2c1 [Example 1017, (R)-2-((4-((3-(benzo[d]oxazol-6-yl)-2-methylbenzyl)oxy)-5-chloro-2-((5-cyanopyridin-3-yl)methoxy)benzyl)amino)-3-hydroxy-2-methylpropanoic acid]
11 to 150 | – | Cc1c(COc2cc(OCc3cncc(C#N)c3)c(CN[C@](C)(CO)C(=O)O)cc2Cl)cccc1-c1ccc2ccncc2c1 [Example 1008, (R)-2-((5-chloro-2-((5-cyanopyridin-3-yl)methoxy)-4-((3-(isoquinolin-7-yl)-2-methylbenzyl)oxy)benzyl)amino)-3-hydroxy-2-methylpropanoic acid]
1 to 10 | – | Cc1c(COc2cc(OCc3cncc(C#N)c3)c(CN[C@](C)(CO)C(=O)O)cc2Cl)cccc1-c1ccc2oc(CCN3CC[C@@H](O)C3)nc2c1 [Example 1028, (R)-2-((5-chloro-2-((5-cyanopyridin-3-yl)methoxy)-4-((3-(2-(2-((R)-3-hydroxypyrrolidin-1-yl)ethyl)benzo[d]oxazol-5-yl)-2-methylbenzyl)oxy)benzyl)amino)-3-hydroxy-2-methylpropanoic acid]
1 to 10 | – | Cc1c(COc2cc(OCc3cncc(C#N)c3)c(CN[C@](C)(CO)C(=O)O)cc2Cl)cccc1-c1ccc2nccnc2c1 [Example 1035, (R)-2-((5-chloro-2-((5-cyanopyridin-3-yl)methoxy)-4-((2-methyl-3-(quinoxalin-6-yl)benzyl)oxy)benzyl)amino)-3-hydroxy-2-methylpropanoic acid]
1 to 10 | – | Cc1c(COc2cc(OCc3cncc(C#N)c3)c(CNC(C)(CO)CO)cc2Cl)cncc1-c1cccc(OCCCN2CC[C@@H](O)C2)c1C [Example 2008, (R)-5-((4-chloro-2-(((1,3-dihydroxy-2-methylpropan-2-yl)amino)methyl)-5-((5-(3-(3-(3-hydroxypyrrolidin-1-yl)propoxy)-2-methylphenyl)-4-methylpyridin-3-yl)methoxy)phenoxy)methyl)nicotinonitrile]
1 to 10 | – | Cc1c(COc2cc(OCc3cncc(C#N)c3)c(CN3CCCC[C@H]3C(=O)O)cc2Cl)cncc1-c1cccc(OCCCN2CC[C@@H](O)C2)c1C [Example 2005, (S)-1-(5-chloro-2-((5-cyanopyridin-3-yl)methoxy)-4-((5-(3-(3-((R)-3-hydroxypyrrolidin-1-yl)propoxy)-2-methylphenyl)-4-methylpyridin-3-yl)methoxy)benzyl)piperidine-2-carboxylic acid]
